Values quoted from earlier work as cited in patent EP4616878A1, “CANNULA FOR RECTAL ADMINISTRATION OF AN ENEMA AND COMPOSITIONS FOR USE THEREWITH” (Cosmo Technologies Ltd., priority 2024, dated 2025).

Key:
[1] = in vivo
[2] = target: T1, pregnane X receptor (PXR) (Homo sapiens, UniProt O75469); conditions: liver and intestinal cell lines; also downstream targets CYP3A4 and PgP
T1 sequence (O75469 1-434): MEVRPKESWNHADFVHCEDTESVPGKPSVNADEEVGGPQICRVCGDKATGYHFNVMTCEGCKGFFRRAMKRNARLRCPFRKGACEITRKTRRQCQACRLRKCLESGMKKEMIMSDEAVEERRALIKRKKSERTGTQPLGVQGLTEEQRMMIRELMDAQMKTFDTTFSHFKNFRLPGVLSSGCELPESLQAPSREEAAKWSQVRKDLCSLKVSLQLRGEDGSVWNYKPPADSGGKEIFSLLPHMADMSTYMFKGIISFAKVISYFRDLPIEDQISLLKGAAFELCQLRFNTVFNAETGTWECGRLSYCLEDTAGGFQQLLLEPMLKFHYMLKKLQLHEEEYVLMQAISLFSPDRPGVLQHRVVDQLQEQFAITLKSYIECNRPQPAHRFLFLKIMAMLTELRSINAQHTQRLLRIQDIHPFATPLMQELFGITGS

nuclear factor-KB (NFκB) = conditions: cell line which lacks PXR expression

## CO[C@H]1/C=C/O[C@@]2(C)Oc3c(C)c(O)c4c(O)c(cc(O)c4c3C2=O)NC(=O)/C(C)=C\C=C\[C@H](C)[C@H](O)[C@@H](C)[C@@H](O)[C@@H](C)[C@H](OC(C)=O)[C@@H]1C [Rifamycin, Rifamycin SV]
[1]
  absorption in the bloodstream: negligible
[2]
  effect on PXR: activate
Nuclear factor-KB (NFκB)
  effect on NFκB: directly inhibited
